Experimental data reported in ChEMBL document CHEMBL1201862, “PubChem BioAssay data set” (2004).
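Each compound was tested at five concentrations against cells in 96-well plates for 48 hours. GI50 marks 50% less growth.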 Calls of active or inactive are those of the source. Cut-off read from the data, not from the text of the source: active = GI50 up to about 1.1 µM and inactive = higher.

What was measured:
Test in all cases: DTP human tumour cell line panel, 48 h
A498 = system: A498
ACHN = system: ACHN
CAKI-1 = system: CAKI-1
DU-145 = system: DU-145
HCC 2998 = system: HCC 2998
Hs-578T = system: Hs-578T
K562 = system: K562
KM12 = system: KM12
MCF7 = system: MCF7
MDA-MB-231 = system: MDA-MB-231
MOLT-4 = system: MOLT-4
NCI-H226 = system: NCI-H226
NCI-H23 = system: NCI-H23
NCI/ADR-RES = system: NCI/ADR-RES
SK-MEL-2 = system: SK-MEL-2
SK-OV-3 = system: SK-OV-3
SN12C = system: SN12C
SNB-19 = system: SNB-19
UACC-257 = system: UACC-257
HT-29 = system: HT-29

Measured: GI50

COC(=O)[C@H]1C=NN[C@@H]1C(=O)N1[C@H]2CC3CC[C@@]2(CS1(=O)=O)C3(C)C
inactive: A498 > 100 µM | ACHN > 100 µM | CAKI-1 > 100 µM | DU-145 > 100 µM | HCC 2998 > 100 µM | Hs-578T > 100 µM | K562 > 100 µM | KM12 > 100 µM | MCF7 > 100 µM | MDA-MB-231 > 100 µM | MOLT-4 > 100 µM | NCI-H226 > 100 µM | NCI-H23 > 100 µM | NCI/ADR-RES > 100 µM | SK-MEL-2 > 100 µM | SK-OV-3 > 100 µM | SN12C > 100 µM | SNB-19 > 100 µM | UACC-257 > 100 µM

COc1ccc2c(c1)c1c(n2CCN2CCOCC2)-c2ccccc2CC1
inactive: A498 32.9 µM | ACHN 38.5 µM | CAKI-1 > 100 µM | DU-145 35.7 µM | HCC 2998 20.7 µM | HT-29 36.6 µM | Hs-578T 18.8 µM | K562 15.3 µM | KM12 32.8 µM | MCF7 30.8 µM | MDA-MB-231 29.4 µM | MOLT-4 17.1 µM | NCI-H226 21.4 µM | NCI-H23 > 100 µM | NCI/ADR-RES 35.5 µM | SK-MEL-2 25.4 µM | SK-OV-3 > 100 µM | SN12C 18.8 µM | UACC-257 47.1 µM

O=C1C(C(O)(C(F)(F)Cl)C(F)(F)Cl)CCCC1C(O)(C(F)(F)Cl)C(F)(F)Cl (stereo unspecified)
inactive: A498 > 10 µM | ACHN > 10 µM | CAKI-1 > 10 µM | DU-145 > 10 µM | HCC 2998 > 10 µM | HT-29 > 10 µM | Hs-578T > 10 µM | KM12 > 10 µM | MCF7 > 10 µM | MDA-MB-231 > 10 µM | NCI-H226 > 10 µM | NCI-H23 > 10 µM | NCI/ADR-RES > 10 µM | SK-MEL-2 > 10 µM | SK-OV-3 > 10 µM | SNB-19 > 10 µM | UACC-257 > 10 µM

CC1CN=C(N(C)C(=O)Nc2ccc(Cl)cc2)S1 (stereo unspecified)
inactive: A498 40.1 µM | ACHN 1.3 µM | CAKI-1 3.64 µM | DU-145 12.9 µM | HCC 2998 4.29 µM | HT-29 31.3 µM | Hs-578T 25.5 µM | K562 8.61 µM | KM12 4.72 µM | MCF7 32.6 µM | MDA-MB-231 32.1 µM | MOLT-4 14 µM | NCI-H23 21.3 µM | NCI/ADR-RES 1.9 µM | SK-MEL-2 15.4 µM | SK-OV-3 46 µM | SN12C 15.2 µM | SNB-19 49 µM | UACC-257 11.5 µM

O=C1N/C(=N/N=C/C(O)C(O)C(O)CO)N/C1=C\c1ccco1 (stereo unspecified)
active: SNB-19 0.0354 µM
inactive: A498 > 100 µM | ACHN > 100 µM | CAKI-1 > 100 µM | DU-145 > 100 µM | HCC 2998 > 100 µM | HT-29 > 100 µM | Hs-578T > 100 µM | K562 > 100 µM | KM12 > 100 µM | MCF7 > 100 µM | MDA-MB-231 > 100 µM | MOLT-4 > 100 µM | NCI-H226 > 100 µM | NCI-H23 > 100 µM | NCI/ADR-RES > 100 µM | SK-OV-3 > 100 µM | SN12C > 100 µM | UACC-257 > 100 µM

CCOC(=O)NNC(=O)NCc1cccc(CNC(=O)NNC(=O)OCC)c1
inactive: A498 > 100 µM | CAKI-1 > 100 µM | DU-145 > 100 µM | HCC 2998 > 100 µM | HT-29 > 100 µM | Hs-578T > 100 µM | K562 > 100 µM | KM12 > 100 µM | MCF7 > 100 µM | MDA-MB-231 > 100 µM | MOLT-4 > 100 µM | NCI-H226 > 100 µM | NCI-H23 > 100 µM | NCI/ADR-RES > 100 µM | SK-MEL-2 > 100 µM | SK-OV-3 > 100 µM | SN12C > 100 µM | SNB-19 > 100 µM | UACC-257 > 100 µM

CC(C)C(O)(C(=O)OCN1C(=O)C2C3C=CC(C2C1=O)C1C2C(=O)N(COC(=O)C(O)(C(C)C)C(C)O)C(=O)C2C31)C(C)O (stereo unspecified)
inactive: A498 39.7 µM | ACHN > 100 µM | CAKI-1 > 100 µM | DU-145 > 100 µM | HCC 2998 > 100 µM | HT-29 > 100 µM | Hs-578T > 100 µM | K562 > 100 µM | KM12 > 100 µM | MCF7 > 100 µM | MDA-MB-231 > 100 µM | MOLT-4 > 100 µM | NCI-H226 > 100 µM | NCI-H23 > 100 µM | NCI/ADR-RES > 100 µM | SK-MEL-2 > 100 µM | SK-OV-3 > 100 µM | SN12C > 100 µM | SNB-19 > 100 µM
